This data set in a line: Solubility of toremifene citrate in solvent (reference). The class given is physicochemical.

Counter-ions that a name gives are not always drawn. Like-named read-outs stand apart in the source and are kept apart here.

On to `CN(C)CCOc1ccc(/C(=C(/CCCl)c2ccccc2)c2ccccc2)cc1` [toremifene citrate], for which the solubility (commonly the dissolved amount per volume that the medium holds) (0.1 M HCl, simulated gastric fluid, read-out: Solubility in 0.1 M HCl) was about 30 µg/mL and the solubility (ethanol, organic solvent or mixture, read-out: Solubility in ethanol) is about 3000 µg/mL.

Source of the values: patent US6887888B2, “Soluble compositions of triphenylethylene antiestrogens” (Orion Corporation, priority 1998, dated 2005).
